Data taken from PubChem BioAssay AID651761 (The Scripps Research Institute Molecular Screening Center, 2012).
Values joined by “and” are separate entries in the source; they are usually repeats but may differ in a detail not shown here. Equal values may be shown once. Active and inactive are the calls of the source. The rule behind the calls is not given here.

Biological target: Perilipin-5 (Homo sapiens) + 1-acylglycerol-3-phosphate O-acyltransferase ABHD5 (Homo sapiens) (UniProt Q00G26+Q8WTS1)
Sequence (Q00G26 whole entry, looked up): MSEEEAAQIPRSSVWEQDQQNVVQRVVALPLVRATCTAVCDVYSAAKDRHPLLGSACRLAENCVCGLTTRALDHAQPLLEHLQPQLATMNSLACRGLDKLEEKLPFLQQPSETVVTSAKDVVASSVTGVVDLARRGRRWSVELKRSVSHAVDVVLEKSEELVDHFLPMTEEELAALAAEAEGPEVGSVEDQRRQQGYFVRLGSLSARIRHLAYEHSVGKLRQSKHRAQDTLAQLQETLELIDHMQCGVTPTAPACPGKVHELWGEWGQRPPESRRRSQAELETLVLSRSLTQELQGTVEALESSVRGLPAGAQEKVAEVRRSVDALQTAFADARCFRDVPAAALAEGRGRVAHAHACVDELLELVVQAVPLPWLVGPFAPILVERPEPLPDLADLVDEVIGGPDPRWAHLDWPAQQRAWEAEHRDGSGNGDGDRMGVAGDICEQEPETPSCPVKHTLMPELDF
Sequence (Q8WTS1 whole entry, looked up): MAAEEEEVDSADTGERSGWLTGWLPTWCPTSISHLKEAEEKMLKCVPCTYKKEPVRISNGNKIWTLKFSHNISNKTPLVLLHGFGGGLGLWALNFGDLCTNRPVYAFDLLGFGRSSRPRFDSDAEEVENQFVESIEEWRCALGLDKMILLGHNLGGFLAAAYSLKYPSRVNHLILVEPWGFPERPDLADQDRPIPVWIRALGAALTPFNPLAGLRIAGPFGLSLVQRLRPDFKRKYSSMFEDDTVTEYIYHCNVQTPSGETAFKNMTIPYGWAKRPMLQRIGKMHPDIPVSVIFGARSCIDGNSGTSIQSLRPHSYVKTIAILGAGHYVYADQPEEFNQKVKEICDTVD
Assay: blockers of ABHD5 binding to perilipin-5 – biochemical, luminescence, late-stage follow-up (AID 651761)
Conditions: biochemical ABHD5-PLIN5 interaction

Row | SMILES | IC50
1 | CN1CCC(=C2c3ccccc3CC(=O)c3sccc32)CC1 | > 39.8 µM (inactive)
2 | COCCN(CCOC)c1nc(N)c2c(N)nc3c(c2c1C#N)CC(=O)N3Cc1ccc(Cl)cc1 | > 39.8 µM (inactive)
3 | CC1Sc2ccc(S(=O)(=O)N3CCC(C(=O)NCc4ccc(Cl)cc4)CC3)cc2NC1=O (stereo unspecified) | 8.56 µM
4 | Cc1nc2c(o1)CCc1ccccc1C2N1CCN(C)CC1 (stereo unspecified) | 2.75 µM
5 | CCN(CC)CCOCCOC(=O)C1(c2ccccc2)CCCC1 | 0.985 µM
6 | Cc1ccc2nc3cc([N+](=O)[O-])cc([N+](=O)[O-])c3cc2c1 | 0.619 µM
7 | CCN(CC)CCNC(=O)c1ccc(NC(=O)c2cn(-c3ccccc3)nc2-c2cccs2)cc1 | inactive
8 | CCOC(=O)c1c(NC(C)=O)sc2c1CCC(C=O)=C2Sc1ccccc1 | 1.79 µM
9 | O=c1[nH]c(C2CCN(S(=O)(=O)c3ccc(S(=O)(=O)NC4CC4)cc3)CC2)nc2c1nnn2Cc1ccc(F)cc1 | 3.42 µM
10 | CC(=O)Nc1ccc(S(=O)(=O)N2c3ccc(F)cc3CCC2C)cc1 (stereo unspecified) | 6.48 µM
11 | COc1cc2c(cc1OC)C(C)N(CCc1ccc(Cl)cc1)CC2 (stereo unspecified) | inactive
12 | FC(F)(F)c1cccc(NC(=S)N(CCCN2CCCC2)Cc2cccn2Cc2ccc(Cl)cc2)c1 | inactive
13 | Cc1ccc2c(CC(=O)N3CCN(S(=O)(=O)c4ccc5c(c4)OCCO5)CC3)coc2c1 | 5 µM and 5.03 µM
14 | Cc1cc(C)c2nc(NNC(=O)c3ccc(S(=O)(=O)N4CCCC(C)C4)cc3)sc2c1 (stereo unspecified) | 4.11 µM
15 | CCOc1cc(N)c(Cl)cc1C(=O)NCC1CN(Cc2ccc(F)cc2)CCO1 (stereo unspecified) | 1.34 µM
16 | CCCCOC(=O)Nc1cc(C(=O)OC)ccc1C(=O)OC | 5.26 µM

Row | SMILES | IC50
17 | CCN(CC)CCOc1ccc(/C(=C(/Cl)c2ccccc2)c2ccccc2)cc1 | 1.11 µM
18 | CC1CCN(S(=O)(=O)c2ccc(NC(=O)Cc3cccs3)cc2)CC1 | 8.64 µM
19 | COc1ccc(C)c2sc(N(CCN(C)C)C(=O)/C=C/c3cccs3)nc12 | 6.96 µM
20 | CN(C)CCOC1(Cc2ccc(F)cc2)CCC(C(C)(C)C)CC1 (stereo unspecified) | > 39.8 µM (inactive)
21 | CC(C)c1ccc(N2C=Nc3ccc(C(C)C)cc3C2)cc1 | 1.56 µM
22 | CC(=O)Oc1ccc(C23c4ccccc4C2(OC(C)=O)c2cc(OC(C)=O)ccc23)cc1 (stereo unspecified) | > 39.8 µM (inactive)
23 | CN(C)CCN(Cc1ccco1)c1ccccn1 | > 39.8 µM (inactive)
24 | O=C(C[n+]1cccc(CNC(=O)c2ccc(OC(F)F)cc2)c1)Nc1cccc(C(F)(F)F)c1 | inactive
25 | C=C[C@]1(C)C[C@@H](OC(=O)CSCCN(CC)CC)[C@]2(C)C(C)CC[C@]3(CCC(=O)[C@H]32)[C@@H](C)[C@@H]1O (stereo partly specified) | 8.02 µM
26 | O=C(/C(=C/O)N=Nc1ccc(Cl)cc1)c1ccncc1 | 9.67 µM
27 | NC(=NCCCCCCN=C(N)/N=C(\N)Nc1ccc(Cl)cc1)/N=C(\N)Nc1ccc(Cl)cc1 | 2.64 µM
28 | COc1ccc(NC(=S)N(CCCN2CCCC2)Cc2cccn2Cc2ccc(Cl)cc2)cc1Cl | inactive
29 | CCOC(=O)c1c(NC(=O)/C=C/C(=O)O)sc(C)c1-c1ccc(C(C)(C)C)cc1 | 5.05 µM
30 | O=c1[nH]c(C2CCN(S(=O)(=O)c3ccc(F)cc3)CC2)nc2c1nnn2Cc1ccc2c(c1)OCCO2 | inactive
31 | CC1CCN(S(=O)(=O)c2ccc(NC(=O)Cc3ccccc3)cc2)CC1 | 8.77 µM

The next lines start with the values.

Row | IC50 | SMILES
32 | 3.02 µM | CC1=CC(C)(C)Nc2ccc(OC(=O)C(C)N3C(=O)c4ccccc4C3=O)cc21 (stereo unspecified)
33 | > 39.8 µM (inactive) | COc1cc(C)c2sc3ccccc3c(=O)c2c1NCCN(C)C
34 | 1.01 µM | CC(CCc1ccco1)NC(=O)CCc1nnc2ccc(NCc3ccccc3Cl)nn12 (stereo unspecified)
35 | 7.07 µM | CN(C)CCCN(C(=O)CCc1ccccc1)c1nc2ccc(Cl)cc2s1
36 | 1.79 µM | CCN(CC)CCC(C)OC(c1ccccc1)c1ccccc1 (stereo unspecified)
37 | 7.42 µM | CCCNC(=O)Nc1ccc2c(c1)N(C)C(=O)c1ccccc1S2
38 | inactive | COc1ccccc1-c1cc(C(=O)NC2CCN(C)CC2)c2ccc(Cl)c(C)c2n1
39 | inactive | Cc1cc(C)c(NC(=O)CN2CCN3CCCC3C2)c(C)c1 (stereo unspecified)
40 | 2.68 µM | CC(=O)Cc1cc(O)c2ccccc2c1OC(=O)c1ccc(Br)cc1
41 | 1.44 µM | COc1cc(OC)cc(C(=O)NC(=S)N(Cc2ccccc2)C(C)C)c1
42 | 8.16 µM | CN(C)CCCN(C(=O)CCc1ccccc1)c1nc2ccc(Br)cc2s1
43 | 3.02 µM | CCCCNC(=O)Nc1ccc2c(c1)N(C)C(=O)c1ccccc1S2
44 | 5.67 µM | CCN(CC)CCN(CC(=O)Nc1c(C)cc(C)cc1C)C(=O)c1ccccc1
45 | 4.32 µM | Cc1cc(C)c(NC(=O)C[N+](C)(C)CC(O)COc2cccc3ccccc23)c(C)c1 (stereo unspecified)
46 | 1.52 µM | CC(=O)Cc1cc(O)c2ccccc2c1OC(=O)c1ccccc1
